38 compounds from US8853193B2, “Thienopyrimidines containing a substituted alkyl group for pharmaceutical compositions” (Boehringer Ingelheim International GmbH, priority 2010, dated 2014) can be followed below.

Structures are written as SMILES. Structures can show the parent of a compound that is named as a salt.

As usually defined, the IC50 is the concentration at which inhibition is half-maximal.

For the assay, the target named is human Mnk2a (Homo sapiens (Human), UniProt Q9HBH9). Nature of the assay: Mnk2a in vitro kinase assay (indirect competitive fluorescence polarization). Format: biochemical. To be noted: pre-activated GST-Mnk2a 2.5 nM, 20 μM ATP, 30 μM substrate peptide; read-out: MNK2 IC50. Put shortly: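 GST-tagged human Mnk2a expressed in E. coli and glutathione-purified, then activated at 2.5 μM with 150 nM pre-activated NHis-ERK2 and 50 μM ATP in HEPES/KOH pH 7.4, MgCl2, DTT, Brij 78 for 45 min at 30 °C. Phospho-peptide product read by indirect competitive fluorescence polarization against fluorophore-labelled phospho-peptide bound to phospho-specific antibody.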
Sequence of human Mnk2a (Q9HBH9 whole entry): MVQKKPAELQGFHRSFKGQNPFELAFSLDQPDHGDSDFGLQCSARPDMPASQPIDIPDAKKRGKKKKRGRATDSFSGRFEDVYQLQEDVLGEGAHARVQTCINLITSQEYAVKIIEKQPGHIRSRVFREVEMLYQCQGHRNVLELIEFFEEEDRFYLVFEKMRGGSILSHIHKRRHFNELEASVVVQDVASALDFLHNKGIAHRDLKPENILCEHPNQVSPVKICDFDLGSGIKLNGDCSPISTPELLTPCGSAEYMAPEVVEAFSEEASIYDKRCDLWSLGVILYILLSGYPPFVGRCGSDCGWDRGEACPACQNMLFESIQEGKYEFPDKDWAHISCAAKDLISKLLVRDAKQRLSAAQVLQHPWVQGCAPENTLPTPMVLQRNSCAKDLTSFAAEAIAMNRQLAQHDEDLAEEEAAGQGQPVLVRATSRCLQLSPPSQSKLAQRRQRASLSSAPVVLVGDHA
A general note: Fluorescence polarisation rises when a labelled molecule tumbles more slowly, as on binding a larger partner.
Take `Cc1c(C(=O)NCCO)sc2ncnc(Nc3ccc(F)cc3OCC3CC3(F)F)c12` (centres unmarked) [Compound 32-20]: the IC50 stood at 19 nM.

On to `Cc1c(C(=O)O)sc2ncnc(Nc3ccc(F)cc3OCC3(CC#N)CC3)c12` [Compound 32-2], for which the IC50 was 19 nM.

With `Cc1c(C(=O)NCCO)sc2ncnc(Nc3ccc(C#N)cc3OC(CF)CF)c12` [Compound 51, 4-(4-Cyano-2-(2-fluoro-1-fluoromethyl-ethoxy)-phenylamino]-5-methyl-thieno[2,3-d]pyrimidine-6-carboxylic acid (2-hydroxy-ethyl)-amide], the IC50 worked out at 10 nM.

In the case of `Cc1c(C(=O)O)sc2ncnc(Nc3ccc(F)cc3OC(C)CC(C)(C)O)c12` (centres unmarked) [Compound 20-2, 4-(4-fluoro-2-(4-hydroxy-4-methylpentan-2-yloxy)phenylamino)-5-methyl-thieno[2,3-d]pyrimidine-6-carboxylic acid], the 50% inhibitory concentration (IC50) was 25 nM.

For the compound `Cc1c(C(=O)O)sc2ncnc(Nc3ccc(F)cc3OCCO)c12` [Compound 32-9], the 50% inhibitory concentration (IC50) was determined as 13 nM.

For `COCC(C)Oc1cc(F)ccc1Nc1ncnc2sc(C(=O)NCCCN(C)C)c(C)c12` (centres unmarked) [Compound 32-35], the IC50 worked out at 35 nM.

`Cc1c(C(=O)O)sc2ncnc(Nc3ccc(F)cc3OCC(F)F)c12` [Compound 32-4]: the IC50 came out at 13 nM.

`Cc1c(C(N)=O)sc2ncnc(Nc3cccnc3OCC3(CC#N)CC3)c12` [Compound 33-4]: the IC50 was 16 nM.

For `Cc1c(C(=O)NCCCN(C)C)sc2ncnc(Nc3cccnc3OC(C)CCN)c12` (centres unmarked) [Compound 16-3, 4-(2-(4-Aminobutan-2yloxy)pyridin-3-ylamino)-N-(3-(dimethylamino)propyl)-5-methylthieno[2,3-d]pyrimidine-6-carboxamide bis(2,2,2-trifluoroacetate)], the IC50 was determined as 74 nM.

With `COCC(CF)Oc1cc(F)ccc1Nc1ncnc2sc(C(=O)O)c(C)c12` (centres unmarked) [Compound 32-6], the IC50 is 23 nM.

As for `Cc1c(C(=O)NCCCN(C)C)sc2ncnc(Nc3ccc(F)cc3OCC3CCOCC3)c12` [Compound 26-3], the half-inhibitory concentration (IC50) amounted to 790 nM.

Regarding `Cc1c(C(=O)NCCO)sc2ncnc(Nc3cccnc3OC(C)CCNS(C)(=O)=O)c12` (centres unmarked) [Compound 43, 4-[2-(3-Methanesulfonylamino-1-methyl-propoxy)-pyridin-3-ylamino]-5-methyl-thieno[2,3-d]pyrimidine-6-carboxylic acid (2-hydroxy-ethyl)-amide], the IC50 came out at 62 nM.

For `COCC(C)Oc1ncccc1Nc1ncnc2sc(C(N)=O)c(C)c12` (centres unmarked) [Compound 28-3, 4-(2-(1-Methoxygrogan-2-yloxy)gyridin-3-ylamino)-5-methyl-thieno[2,3-d]gyrimidine-6-carboxamide], the 50% inhibitory concentration (IC50) is 26 nM.

On to `Cc1c(C(=O)NCCN(C)C)sc2ncnc(Nc3ccc(F)cc3OC(CF)CF)c12` [Compound 23-7, 4-(2-(1,3-difluoro-propan-2-yloxy)-4-fluorophenylamino)-N-(2-(dimethylamino)-ethyl)-5-methylthieno-[2,3-d]-pyrimidine-6-carboxamide], for which the IC50 stood at 17 nM.

Turning to `COC(=O)c1sc2ncnc(Nc3ccc(F)cc3OC(C)CCN)c2c1C` (centres unmarked) [Compound 12, Methyl 4-(2-(4-aminobutan-2yloxy)-4-fluorophenylamino)-5-methyl-thieno[2,3-d]pyrimidine-6-carboxylate hydrochloride], the IC50 worked out at 52 nM.

For `Cc1c(C(=O)NCCCN(C)C)sc2ncnc(Nc3ccc(F)cc3OCC(F)F)c12` [Compound 32-19], the IC50 was 23 nM.

Consider `Cc1c(C(=O)O)sc2ncnc(Nc3ccc(F)cc3OC(C)CN)c12` (centres unmarked) [Compound 7, 4-(2-(1-Aminopropan-2-yloxy)-4-fluorophenylamino)-5-methyl-thieno[2,3-d]pyrimidine-6-carboxylic acid trifluoroacetate], for which the half-maximal inhibitory concentration (IC50) came out at 14 nM.

Regarding `COC(=O)c1sc2ncnc(Nc3ccc(C#N)cc3OC(CF)CF)c2c1C` [Compound 47, Methyl 4-[4-cyano-2-(2-fluoro-1-fluoromethyl-ethoxy)phenylamino]-5-methyl-thieno[2,3-d]pyrimidine-6-carboxylate], the half-maximal inhibitory concentration (IC50) is 125 nM.

With `Cc1c(C(=O)NCC#N)sc2ncnc(Nc3ccc(C#N)cc3OC(CF)CF)c12` [Compound 53, 4-(4-Cyano-2-(2-fluoro-1-fluoromethyl-ethoxy)-phenylamino]-5-methyl-thieno[2,3-d]pyrimidine-6-carboxylic acid cyanomethyl-amide], the concentration for half-maximal inhibition (IC50) was 7 nM.

Turning to `COC(=O)c1sc2ncnc(Nc3ccc(F)cc3OC(C)CNS(=O)(=O)C(C)C)c2c1C` (centres unmarked) [Compound 3-2, Methyl 4-(4-fluoro-2-(1-(1-methylethylsulfon-amino)propan-2yloxy)-phenylamino)-5-methyl-thieno[2,3-d]pyrimidine-6-carboxylate], the IC50 was 204 nM.

`COC(=O)c1sc2ncnc(Nc3ccc(F)cc3OC(C)CN)c2c1C` (centres unmarked) [Compound 2-1, Methyl 4-(2-(1-aminopropan-2-yloxy)-4-fluorophenylamino)-5-methyl-thieno[2,3-d]pyrimidine-6-carboxylate trifluoroacetate]: the IC50 turned out to be 70 nM.

`Cc1c(C(=O)O)sc2ncnc(Nc3ccc(F)cc3OC(CF)CF)c12` [Compound 23-2, 4-(2-(1,3-Difluoropropan-2-yloxy)-4-fluorophenylamino)-5-methyl-thieno[2,3-d]pyrimidine-6-carboxylic acid]: the concentration for half-maximal inhibition (IC50) came out at 6 nM.

Take `COC(=O)c1sc2ncnc(Nc3ccc(F)cc3OC(C)CNS(C)(=O)=O)c2c1C` (centres unmarked) [Compound 3-1, Methyl 4-(4-fluoro-(2-(1-methylsulfonamido)propan-2-yloxy)phenylamino)-5-methyl-thieno[2,3-d]pyrimidine-6-carboxylate]: the IC50 turned out to be 41 nM.

As to `CNC(=O)c1sc2ncnc(Nc3ccc(F)cc3OC(C)CN)c2c1C` (centres unmarked) [Compound 2-4, 4-(2-(1-Amino-propan-2-yloxy)-4-fluorophenylamino)-N-5-methyl-thieno[2,3-d]-pyrimidin-6-carboxamide trifluoroacetate], the IC50 was 23 nM.

`Cc1c(C(=O)NCc2cn(C)cn2)sc2ncnc(Nc3cccnc3OC(C)C)c12` [Compound 36-15, 4-(2-Isopropoxypyridin-3ylamino)-5-methyl-N-((1-methyl-1H-imidazol-4-yl)methyl) thieno[2,3-d]pyrimidine-6-carboxamide]: the half-inhibitory concentration (IC50) worked out at 24 nM.

Regarding `Cc1c(C(=O)NCCCN(C)C)sc2ncnc(Nc3cccnc3OC(C)C(F)(F)F)c12` (centres unmarked) [Compound 21-5, N-(3-(dimethyl-amino)propyl)-5-methyl-4-(2-(1,1,1-trifluoro-propan-2-yloxy)-pyridin-3-yl-amino)thieno[2,3-d]pyrimidine-6-carboxamide], the IC50 is 42 nM.

In the case of `Cc1c(C(=O)NCCO)sc2ncnc(Nc3ccc(F)cc3OCC3(CC#N)CC3)c12` [Compound 32-14], the half-maximal inhibitory concentration (IC50) amounted to 65 nM.

For `Cc1c(C(=O)NCCCN2CCCC2)sc2ncnc(Nc3ccc(C#N)cc3OC(CF)CF)c12` [Compound 48, 4-[4-Cyano-2-(2-fluoro-1-fluoromethyl-ethoxy)-phenylamino]-5-methyl-thieno[2,3-d]pyrimidine-6-carboxylic acid (3-pyrrolidin-1-yl-propyl)-amide], the IC50 worked out at 12 nM.

For the compound `Cc1c(C(=O)NC2CCN(C)CC2)sc2ncnc(Nc3cccnc3OC(C)C)c12` [Compound 36-10, 4-(2-Isopropoxypyridin-3ylamino)-5-methyl-N-(1-methylpiperidin-4-yl)thieno[2,3-d]pyrimidine-6-carboxamide], the half-maximal inhibitory concentration (IC50) was 32 nM.

Consider `Cc1c(C(=O)NCCO)sc2ncnc(Nc3ccc(F)cc3OCC(F)F)c12` [Compound 32-18], for which the IC50 was determined as 30 nM.

For `Cc1c(C(=O)NCCCO)sc2ncnc(Nc3cccnc3OC(C)C)c12` [Compound 36-11, N-(3-Hydroxypropyl)-4-(2-isopropoxypyridin-3ylamino)-5-methylthieno[2,3-d]pyrimidine-6-carboxamide], the half-maximal inhibitory concentration (IC50) was found to be 45 nM.

`Cc1c(C(=O)NCCCN(C)C)sc2ncnc(Nc3cccnc3OCCO)c12` [Compound 29-4, N-(3-(dimethyl-amino)propyl)-4-(2-(2-hydroxy-ethoxy)pyridin-3-ylamino)-5-methylthieno[2,3-d]pyrimidine-6-carboxamide hydrochloride]: the 50% inhibitory concentration (IC50) came to 288 nM.

As to `Cc1c(C(=O)NCCCN(C)C)sc2ncnc(Nc3ccc(F)cc3OC(CF)CF)c12` [Compound 23-6, 4-(2-(1,3-difluoro-propan-2-yloxy)-4-fluorophenylamino)-N-(3-(dimethylamino)-propyl)-5-methyl-thieno[2,3-d]-pyrimidine-6-carboxamide], the 50% inhibitory concentration (IC50) was 10 nM.

`Cc1c(C(=O)NCCCN(C)C)sc2ncnc(Nc3ccc(F)cc3OCC3(CC#N)CC3)c12` [Compound 32-15]: the half-maximal inhibitory concentration (IC50) is 78 nM.

For the compound `CNC(=O)c1sc2ncnc(Nc3cccnc3OC(C)C(F)(F)F)c2c1C` (centres unmarked) [Compound 21-6, N-Methyl-5-methyl-4-(2-(1,1,1-trifluoro-propan-2-yloxy)-pyridin-3-yl-amino)thieno[2,3-d]pyrimidine-6-N-methylcarboxamide], the IC50 is 12 nM.

In the case of `Cc1c(C(=O)NCCCN(C)C)sc2ncnc(Nc3ccc(F)cc3OC(C)CN)c12` (centres unmarked) [Compound 2-2, 4-(2-(1-Amino-propan-2-yloxy)-4-fluorophenylamino)-N-(3-(diemthyl-amino)propyl)-5-methylthieno[2,3-d]pyrimidine-6-carboxamide bis(trifloroacetate)], the half-maximal inhibitory concentration (IC50) came to 41 nM.

In the case of `Cc1c(C(=O)NCC#CCN(C)C)sc2ncnc(Nc3ccc(F)cc3OC(CF)CF)c12` [Compound 23-9, 4-(2-(1,3-difluoro-propan-2-yloxy)-4-fluorophenylamino)-N-(4-(dimethylamino)-but-2ynyl)-5-methyl-thieno[2,3-d]pyrimidine-6-carboxamide], the IC50 came out at 7 nM.

Regarding `CCNC(=O)C(C)Oc1cc(F)ccc1Nc1ncnc2sc(C(N)=O)c(C)c12` (centres unmarked) [Compound 31-5, 4-(2-(1-(Ethylamino)-1-oxopropan-2-yloxy)-4-fluorophenylamino)-5-methyl-thieno[2,3-d]pyrimidine-6-carboxamide], the concentration for half-maximal inhibition (IC50) came out at 11 nM.
